In patent US20070244076A1, “Site and Rate Selective Prodrug Formulations of D609 with Antioxidant and Anticancer Activity” (priority 2003, published 2007):
Marks after values point to notes of the source that are not given here.

Experiments:
U937 cells = assay: MTT cell viability, U937 cells; format: cell-based, Human; conditions: for LD50: 48 h
Method: Cell viability assay: The MTT assay was used to quantify viable U937 cells (Hansen et al., 1989). U937 cells were harvested, washed and resuspended in complete medium at a concentration of 5×10^5 cells per ml. Aliquots (100 μl) of the cell suspension were added to wells of a 96-well microtiter plate with the addition of 100 μl of complete medium (control) or various concentrations of D609 or a D609 prodrug (diluted in complete medium). After 48 h incubation, the plates were centrifuged to remove the supernatants from the culture, and 50 μl of MTT at a concentration of 5 mg/ml in phosphate-buffered saline (PBS) was added to each well. The plates were incubated for 4 h at 37° C. to allow for the formation of a colored formazan. The formazan was solubilized by lysing the cells with 100 μl of lysis buffer containing 20 (w/v) % dodecylsulfate and 50 (v/v) % N,N-dimethyl formamide, pH 4.7. Absorbance of the formazan was measured at 595 nm using a Vmax plate reader (Molecular Devices, Sunnyvale, Calif.). The viability of the cells was expressed as a percent of control calculated by the formula Ad/Ac×100, where Ad and Ac, represent the absorbance of drug-treated and untreated control cells, respectively, and expressed as a percentage of control.
In this study, p-nitrophenyl-phosphorylcholine (pNPP, 40 mM) was incubated with 2 U/ml phospholipase C (Type XI from B. cereus) in the presence or absence of various concentrations of inhibitors for 2 hrs at 37° C. The amount of the cleaved substrate pNPP was quantified by determination of the optical density at 410 nm using an ELISA reader. The results are expressed as percent of vehicle control and presented as means±SEM (n=3) (FIG. 9A). NBD-C6-ceramide and PC were incubated with U937 cell lysates containing 50 μg protein in the presence or absence of various concentrations of inhibitors for 30 min at 30° C. The formation of NBD-C6-sphingomyelin as analyzed by TLC and quantified by determination of the fluorescent intensity of NBD-C6-sphingomyelin using a phosphorimager. The results are expressed as percent of vehicle control (FIG. 9B). […]

[1] = test system: Jurkat T-cell leukemia cells; assay: MTT cell viability, Jurkat cells; format: cell-based, human
[2] = test system: STM91-01 malignant rhabdoid tumor cells; assay: MTT cell viability, STM91-01 cells; format: cell-based, human
[3] = test system: normal human diploid fibroblasts-WI38 cells; assay: MTT cell viability, WI38 normal fibroblasts; format: cell-based; conditions: for LD50: normal cells
[4] = test system: sphingomyelin synthase (SMS); assay: Cellular SMS activity in U937 cells treated with drug; format: cell-based, Human; conditions: for inhibition of SMS activity: 177 μM, 0.5, 1 and 2 h
Method: Analysis of sphingomyelin synthase (SMS) activity: U937 cells (2×10^6/ml) were cultured with vehicle (0.5% DMSO) or 177 μM D609 or prodrug 2. After 0.5, 1 and 2 h incubation, the cells were harvested, washed and then homogenized in ice-cold lysis buffer (250 mM sucrose; 5 mM HEPES, pH 7.4; 1 mM phenylmethylsulfonyl fluoride; and 20 μg/ml each of chymostatin, leupeptin, antipain, and pepstatin) by 15 passages through a 27-gauge×0.5-inch needle. The cell lysates were first centrifuged at 1000×g for 10 min at 4° C. to remove all the unbroken cells and nuclei. The resultant supernatants were quantified for protein concentration using the Bio-Rad protein assay reagent (Bio-Rad, Hercules, Calif.) and assayed for SMS activity as follows: aliquots of the cell lysates containing 50 μg protein were preincubated for 10 min at 30° C. in a total volume of 50 μl of incubation buffer (50 mM Tris-HCl, pH 7.4; 25 mM KCl; and 0.5 mM EDTA). The reaction was started by addition of 2 nmol NBD C6-ceramide and 12 nmol PC to give a final volume of 50 μl and incubated for 30 min. The reaction was stopped by addition of 200 μl chloroform/methanol (1:1, v/v); the mixture was vortexed and kept on ice. The chloroform/methanol fraction was isolated, and the lipids were resolved by TLC (silica gel) in chloroform:methanol:15 mM CaCl2 (90:52.5:12) (Luberto and Hannun, 1998; Meng et al., 2004). The formation of NBD-C6-sphingomyelin was quantified by determination of the fluorescent intensity of NBD-C6-sphingomyelin using a phosphoimager. Values for blanks were subtracted from total values of NBD-C6-sphingmyelin to yield the amount of NBD-C6-sphingmyelin produced in each sample.
To validate if inhibition of SMS may mediate D609-induced tumor cell death, the cellular level of SMS activity in U937 cells treated with vehicle or D609 were studied. […] NBD-C6-ceramide and PC were incubated with the cell lysates containing 50 μg proteins for 30 min at 30° C. The formation of NBD-C6-sphingomyelin was analyzed by TLC and quantified by determination of the fluorescent intensity of NBD-C6-sphingomyelin using a phosphoimager. The results, shown in FIGS. 10B-10D, are expressed as percent of the control cultures with vehicle and presented as means±SEM (n=3). […] The levels of ceramide (FIG. 10B) and DAG (FIG. 10C) were analyzed by the DAG kinase assay, normalized to the levels of cellular phospholipid and expressed as pmole/nmole phophate (pi) or the ratio of ceramide and DAG (FIG. 10D). The results represent means±SEM (n=3).

[5] = test system: ceramide levels in U937 cells; assay: Ceramide profile in U937 cells by ESI/MS/MS; format: cell-based, Human; conditions: for increase in the level of total ceramide compared to vehicle-treated cells: 177 μM; for C14-Cer / C16-Cer / C18-Cer / C20-Cer / C24-Cer / C24:1-Cer / Total-Cer / dhC16-Cer: 177 µM, 4 h
Method: ESI/MS/MS analysis of ceramide was performed on a Thermo Finnigan TSQ 7000 triple quadruple mass spectrometer, operating in a multiple reaction monitoring (MRM) positive ionization mode. U937 cells (4×10^6/sample) were washed twice with PBS after they were harvested from cultures. […] An aliquot of the lipid extracts was taken for inorganic phosphate determination and the remainder was evaporated to dryness and reconstituted in 100 μL of methanol. The reconstituted samples were injected on the Surveyor/TSQ 7000 LC/MS system and gradient was eluted from the BDS Hypersil C8, 150×3.2 mm, 3 μm particle size column, with 1.0 mM methanolic ammonium formate/2 mM aqueous ammonium formate mobile phase system. Peaks for the target analytes and internal standards were collected and processed using the Xcalibur software system. Various species of ceramide were quantified using N-palmitoyl-D-erythro-sphingosine, C13 base (C13 ceramide) and N-heptadecanoyl-D-erythro-sphingosine, C18 base (C18 ceramide) as internal calibration standards. Calibration curves were constructed by plotting peak area ratios of synthetic standards corresponding to each target analyte with respect to the appropriate internal standard. The target analyte peak areas from the samples were similarly normalized to their respective internal standard then compared with the calibration curves using a linear regression model. The results are expressed as pmole ceramide/nmole lipid phosphate (Pi).

SMILES	LD50 (U937 cells) [µM]	LD50 [1] [µM]	LD50 [2] [µM]	LD50 [3] [µM]	inhibition of SMS activity [4]	increase in the level of total ceramide compared to vehicle-treated cells [5]	C14-Cer [5]	C16-Cer [5]	C18-Cer [5]	C20-Cer [5]	C24-Cer [5]	C24:1-Cer [5]	Total-Cer [5]	dhC16-Cer [5]	U937 cell death / cell viability (U937 cells; 48 hours)	cell viability ([3]; 48 hours)	IC50 ([4]; U937 cells cultured 2 hrs) [µM]	IC50, SMS activity ([4]; U937 cells cultured 2 hrs) [µg/mL]
CCCC(=O)OCSC(=S)OC1CC2CC1C1CCCC21 (centres unmarked) [Prodrug 2, S-methyleneoxybutyryl D609]	56.6	44.26	87.10	333.43	significantly greater	1.84 fold	0.054^a,b pmole ceramide/nmole lipid Pi	1.713^a pmole ceramide/nmole lipid Pi	0.262^a pmole ceramide/nmole lipid Pi	0.031^a pmole ceramide/nmole lipid Pi	0.482^a pmole ceramide/nmole lipid Pi	0.863^a,b pmole ceramide/nmole lipid Pi	4.358^a,b pmole ceramide/nmole lipid Pi	0.951^a,b pmole ceramide/nmole lipid Pi				
S=C([S-])OC1CC2CC1C1CCCC21.[K+] (centres unmarked) [Prodrug D609, Tricyclodecan-9-yl-xanthogenate]	117	63.97	545.75	267.51	time-dependent inhibition of SMS activity	about 1.61 fold	0.038^a pmole ceramide/nmole lipid Pi	1.612^a pmole ceramide/nmole lipid Pi	0.213^a pmole ceramide/nmole lipid Pi	0.036^a pmole ceramide/nmole lipid Pi	0.416 pmole ceramide/nmole lipid Pi	0.669^a pmole ceramide/nmole lipid Pi	3.816^a pmole ceramide/nmole lipid Pi	0.832^a pmole ceramide/nmole lipid Pi	induced significant cell death	relatively resistant	~90	~23.8
